Data on 25 compounds can be found in patent US11306105B2, “Cyano thienotriazolodiazepines and uses thereof” (Dana-Farber Cancer Institute, Inc., priority 2015, dated 2022).

Like-named read-outs stand apart in the source and are kept apart here.

In data set [1] the test system is NMC797 cell line (BRD4 dependent NUT midline carcinoma line). Description: Cell proliferation assay (ATP content), NMC797. The settings on record: NMC797 cells, 48 h incubation. It is filed as cell-based. The method, then:
(§1) The IC50 of the compounds were determined by ALPHASCREENING assays for BRD4 and BRDT proteins. NMC797 cell line is a BRD4 dependent NUT midline carcinoma line.
Cell Proliferation Assay. Cells were seeded into white, 384-well microtiter plates (Nunc) at 500 cells per well in a total volume of 50 μL media. The 797, TT, and TE10 cells were grown in DMEM containing 1% penicillin/streptomycin and 10% FBS. The Per403 cells were grown in DMEM containing 1% penicillin/streptomycin and 20% FBS. Compounds were delivered to microtiter assay plates by robotic pin transfer (PerkinElmer JANUS equipped with a V&P Scientific 100 nL pin tool). Following a 48 h incubation at 37° C., cells were lysed and wells were assessed for total ATP content using a commercial proliferation assay (Cell TITERGLO; Promega). Replicate measurements were analyzed with respect to dose and estimates of IC50 were calculated by logistic regression ([…] PRISM).

The target of data set [2] is BRD4(1) (Homo sapiens (Human), UniProt O60885). Description: AlphaScreen acetyl-histone binding assay, BRD4(1). The method, then: as §1
(§2) Acetyl-Histone Binding Assay. Assays were performed as described previously with minor modifications from the manufacturer's protocol (PerkinElmer, USA). All reagents were diluted in 50 mM HEPES, 100 mM NaCl, 0.1% BSA, pH 7.4 supplemented with 0.05% CHAPS and allowed to equilibrate to room temperature prior to addition to plates. A 24-point 1:2 serial dilution of the ligands was prepared over the range of 150-0 μM and 4 μl transferred to low-volume 384-well plates (ProxiPlate™-384 Plus, PerkinElmer, USA), followed by 4 μl of HIS-tagged protein (BRD4/1, 250 nM, BRD4/2 and CREBBP, 2000 nM). […] Plates were sealed and incubated for a further 30 minutes, before the addition of 4 μl of streptavidin-coated donor beads (25 μg/ml) and 4 μl nickel chelate acceptor beads (25 μg/ml) under low light conditions. Plates were foil-sealed to protect from light, incubated at room temperature for 60 minutes and read on a PHERAstar FS plate reader (BMG Labtech, Germany) using an AlphaScreen 680 excitation/570 emission filter set. IC50 values were calculated in Prism 5 (GraphPad Software, USA) after normalization against corresponding DMSO controls and are given as the final concentration of compound in the 20 μl reaction volume.

Data set [3] addresses BRDT(1) (Homo sapiens (Human), UniProt Q58F21). Description: AlphaScreen acetyl-histone binding assay, BRDT(1). The protocol:
as §1, §2
In general terms: In Alpha technology, singlet oxygen from a donor bead excites a nearby acceptor bead.

Data set [4] is described as follows: Pharmacokinetics in male CD1 mice, oral administration. It is filed as in vivo, mouse. The settings on record: for half-life: read-out: Terminal t1/2 (converted); for F: oral 10 mg/kg vs IV 5 mg/kg. The protocol:
(§3) Pharmacokinetic parameters were determined by administration of a candidate bromodomain inhibitor to male CD1 mice. Intravenous doses were delivered at 5 mg/kg, and oral doses at 10 mg/kg (N=3). […] The compound concentration in mouse blood was monitored over 24 hour time period to check the compound concentration in blood at 5 min, […], 1 h, 2 h, 6 h, 12, 24 h via a series bleeding.

Data set [5] can be described thus: Pharmacokinetics in male CD1 mice, IV administration. Format: in vivo, mouse. The settings on record: IV 5 mg/kg, whole blood; for AUC(0-inf) / AUC(0-t) / MRT inf / clearance / half-life / Vd: mouse; for half-life: read-out: Terminal t1/2 (converted); for Vd: read-out: VSS. The method, then:
as §3

Setting [6] is: mouse, oral 10 mg/kg, whole blood.
Setting [7] is: mouse, oral 10 mg/kg, whole blood, read-out: Cmax.
Where [8] appears, read: mouse, oral 10 mg/kg, whole blood, read-out: Tmax.

As for `Cc1sc2c(c1C)C(c1ccc(C#N)cc1)=N[C@@H](CC(=O)OC(C)(C)C)c1nnc(C)n1-2` [Compound 100], the IC50 in data set [1] (NMC-797) was 185 nM.
On to `Cc1sc2c(c1C)C(c1ccc(C#N)cc1)=N[C@@H](CC(=O)Nc1ccc(O)cc1)c1nnc(C)n1-2` [Compound 101], for which the half-maximal inhibitory concentration (IC50) turned out to be 79 nM in data set [2], 133 nM in data set [1] (NMC-797) and 120 nM in data set [3].
On to `CCNC(=O)C[C@@H]1N=C(c2ccc(C#N)cc2)c2c(sc(C)c2C)-n2c(C)nnc21` [Compound 102], for which the IC50 came to 120 nM in data set [2], 275 nM in data set [1] (NMC-797) and 458 nM in data set [3].
As for `Cc1sc2c(c1C)C(c1ccc(C#N)cc1)=N[C@@H](CC(=O)NCCCN1CCN(C)CC1)c1nnc(C)n1-2` [Compound 103], the IC50 in data set [2] was found to be 50 nM; in data set [1] (NMC-797), 333 nM; in data set [3], 120 nM.
Taken in the same sequence, the figures for `Cc1sc2c(c1C)C(c1ccc(C#N)cc1)=N[C@@H](CC(=O)NCCN1CCOCC1)c1nnc(C)n1-2` [Compound 104] were 53 nM, 183 nM and 216 nM.
For `Cc1sc2c(c1C)C(c1ccc(C#N)cc1)=N[C@@H](CC(N)=O)c1nnc(C)n1-2` [Compound 105], in that order: 174 nM, 366 nM and 565 nM.
Take `Cc1sc2c(c1C)C(c1ccc(C#N)cc1)=N[C@@H](CC(=O)NCCO)c1nnc(C)n1-2` [Compound 106]: the 50% inhibitory concentration (IC50) in data set [2] came to 33 nM; in data set [1] (NMC-797) it was 328 nM; in data set [3], 105 nM.
In data set [2], `Cc1sc2c(c1C)C(c1ccc(C#N)cc1)=N[C@@H](CC(=O)NC[C@H](C)O)c1nnc(C)n1-2` [Compound 107] showed a half-maximal inhibitory concentration (IC50) of 61 nM. This compound returned an IC50 in data set [1] (NMC-797) of 107 nM. This compound also came in with an IC50 in data set [3] of 187 nM. Moreover, in data set [4] (setting [6]), the total exposure AUC(0-inf) is 532 ng·h/mL, the area under the curve AUC(0-t) stood at 512 ng·h/mL and the half-life is 97.2 min. The maximum concentration (Cmax) in data set [4] (setting [7]) stood at 319 ng/mL. Besides, the Tmax in data set [4] (setting [8]) was 30 min. The F in data set [4] amounted to 9.10%. In data set [5], the AUC(0-inf) is 2920 ng·h/mL, the AUC(0-t) was determined as 2920 ng·h/mL, the mean residence time MRT inf was determined as 20.2 min and the clearance is 29.3 mL/min/kg. In data set [5], the half-life was 24.7 min and the Vd was 0.583 L/kg.
Take `Cc1sc2c(c1C)C(c1ccc(C#N)cc1)=N[C@@H](CC(=O)NC[C@@H](C)O)c1nnc(C)n1-2` [Compound 108]: the half-maximal inhibitory concentration (IC50) is 52 nM in data set [2], 258 nM in data set [1] (NMC-797) and 133 nM in data set [3].
`Cc1sc2c(c1C)C(c1ccc(C#N)cc1)=N[C@@H](CC(=O)NCC(F)F)c1nnc(C)n1-2` [Compound 109] registered a half-inhibitory concentration (IC50) in data set [2] of 37 nM. Besides, in data set [1] (NMC-797), the IC50 was determined as 70 nM. The compound further registered an IC50 in data set [3] of 142 nM. Moreover, in data set [4] (setting [6]), the AUC(0-inf) was 3780 ng·h/mL, the AUC(0-t) came out at 3630 ng·h/mL and the half-life was 101 min. Besides, the Cmax in data set [4] (setting [7]) stood at 1210 ng/mL. Moreover, the Tmax in data set [4] (setting [8]) was found to be 40 min. Besides, the F in data set [4] is 53.8%. For the same compound, in data set [5], the AUC(0-inf) came to 3510 ng·h/mL, the AUC(0-t) was determined as 3500 ng·h/mL, the mean residence time (MRT inf) amounted to 49.7 min and the clearance was 23.7 mL/min/kg. Besides, in data set [5], the half-life is 66.6 min and the Vd was 1.18 L/kg.
In the case of `Cc1sc2c(c1C)C(c1ccc(C#N)cc1)=N[C@@H](CC(=O)N1CCOCC1)c1nnc(C)n1-2` [Compound 110], the results for the half-maximal inhibitory concentration (IC50) in data set [2], in data set [1] (NMC-797) and in data set [3] were 89 nM, 116 nM and 197 nM, respectively.
As to `Cc1sc2c(c1C)C(c1ccc(C#N)cc1)=N[C@@H](CC(=O)NCC(F)(F)F)c1nnc(C)n1-2` [Compound 111], the IC50 stood at 117 nM in data set [2] and 125 nM in data set [1] (NMC-797).
`COC(=O)C[C@@H]1N=C(c2ccc(Cl)cc2)c2c(sc(CC#N)c2C)-n2c(C)nnc21` [Compound 200] had a 50% inhibitory concentration (IC50) in data set [2] of 48 nM. Further, in data set [1] (NMC-797), the IC50 came to 52 nM. This compound had an IC50 in data set [3] of 132 nM. Besides, in data set [4] (setting [6]), the area under the curve AUC(0-inf) was 6040 ng·h/mL, the AUC(0-t) was 5520 ng·h/mL and the half-life is 118 min. In addition, the highest concentration (Cmax) in data set [4] (setting [7]) came to 1500 ng/mL. Further, the time to peak (Tmax) in data set [4] (setting [8]) was 30 min. Also, the F in data set [4] came to 72.4%. Further, in data set [5], the AUC(0-inf) amounted to 4050 ng·h/mL, the area under the curve AUC(0-t) turned out to be 4000 ng·h/mL, the MRT inf came to 76.8 min and the clearance was 20.8 mL/min/kg. Moreover, in data set [5], the half-life is 82.8 min and the Vd is 1.57 L/kg.
Consider `Cc1c(CC#N)sc2c1C(c1ccc(Cl)cc1)=N[C@@H](CC(=O)Nc1ccc(O)cc1)c1nnc(C)n1-2` [Compound 201], for which the half-inhibitory concentration (IC50) worked out at 175 nM in data set [2] and 1900 nM in data set [1] (NMC-797).
In the case of `CCNC(=O)C[C@@H]1N=C(c2ccc(Cl)cc2)c2c(sc(CC#N)c2C)-n2c(C)nnc21` [Compound 202], the concentration for half-maximal inhibition (IC50) was 310 nM in data set [2] and 1130 nM in data set [1] (NMC-797).
In the case of `Cc1c(CC#N)sc2c1C(c1ccc(Cl)cc1)=N[C@@H](CC(=O)NCCCN1CCN(C)CC1)c1nnc(C)n1-2` [Compound 203], the IC50 in data set [2] is 134 nM; in data set [1] (NMC-797) it was 6790 nM.
Taken in the same sequence, the figures for `Cc1c(CC#N)sc2c1C(c1ccc(Cl)cc1)=N[C@@H](CC(=O)NCCN1CCOCC1)c1nnc(C)n1-2` [Compound 204] were 300 nM and 3460 nM.
For the compound `Cc1c(CC#N)sc2c1C(c1ccc(Cl)cc1)=N[C@@H](CC(N)=O)c1nnc(C)n1-2` [Compound 205], the IC50 is 206 nM in data set [2], 903 nM in data set [1] (NMC-797) and 612 nM in data set [3].
With `Cc1c(CC#N)sc2c1C(c1ccc(Cl)cc1)=N[C@@H](CC(=O)NCCO)c1nnc(C)n1-2` [Compound 206], the IC50 turned out to be 197 nM in data set [2], 9630 nM in data set [1] (NMC-797) and 642 nM in data set [3].
For the compound `Cc1c(CC#N)sc2c1C(c1ccc(Cl)cc1)=N[C@@H](CC(=O)NC[C@H](C)O)c1nnc(C)n1-2` [Compound 207], the half-maximal inhibitory concentration (IC50) in data set [2] stood at 623 nM; in data set [1] (NMC-797) it was 4250 nM.
Consider `Cc1c(CC#N)sc2c1C(c1ccc(Cl)cc1)=N[C@@H](CC(=O)NC[C@@H](C)O)c1nnc(C)n1-2` [Compound 208], for which the 50% inhibitory concentration (IC50) in data set [2] was 415 nM; in data set [1] (NMC-797), 6100 nM; in data set [3], 1200 nM.
With `Cc1c(CC#N)sc2c1C(c1ccc(Cl)cc1)=N[C@@H](CC(=O)NCC(F)F)c1nnc(C)n1-2` [Compound 209], the IC50 in data set [2] amounted to 386 nM; in data set [1] (NMC-797) it was 912 nM.
For the compound `Cc1c(CC#N)sc2c1C(c1ccc(Cl)cc1)=N[C@@H](CC(=O)N1CCOCC1)c1nnc(C)n1-2` [Compound 210], the 50% inhibitory concentration (IC50) is 466 nM in data set [2], 118 nM in data set [1] (NMC-797) and 1420 nM in data set [3].
As for `COC(=O)C[C@@H]1N=C(c2ccc(Cl)cc2)c2c(sc(CNS(=O)(=O)c3ccccc3)c2C)-n2c(C)nnc21` [Compound 300], the IC50 in data set [2] was 16 nM; in data set [1] (NMC-797), 61 nM; in data set [3], 60 nM.
For the compound `Cc1sc2c(c1C)C(c1ccc(Cl)cc1)=N[C@@H](CC(=O)OC(C)(C)C)c1nnc(C)n1-2` [JQ1, reference compound], the IC50 in data set [1] stood at 21 nM. Moreover, in data set [4] (oral 10 mg/kg, whole blood), the AUCINF was determined as 2090 ng·h/mL, the AUClast came to 2040 ng·h/mL, the Cmax is reported as 1180 ng/mL and the Tmax worked out at 15 min. In addition, in data set [5], the AUCINF was 2130 ng·h/mL, the AUClast came out at 2130 ng·h/mL, the CL is 39.2 mL/min/kg and the MRTINF was found to be 51.7 min.

Broadly, the IC50 is the concentration at which inhibition is half-maximal. The low end stands for greater potency, the high end for weaker potency. Usually AUC(0-inf) stands for total exposure, with the tail of the curve extrapolated. A higher AUC(0-inf) goes with high exposure. What is called AUC(0-t) is the area under the concentration-time curve up to a stated or last time point. The term Cmax denotes the peak of the concentration-time curve. Broadly, the Tmax is the time from dosing to the highest level. The term MRT inf denotes a mean duration of stay, worked out from the concentration-time curve. What is called clearance is the volume of plasma or blood freed of the substance per unit of time. A high value points to efficient removal.
